Source: PMC7577153, “Identification of Small-Molecule Inhibitors Targeting Porphyromonas gingivalis Interspecies Adherence and Determination of Their In Vitro and In Vivo Efficacies” (Antimicrobial Agents and Chemotherapy, 2020)
Read-outs that look alike come from different tables or passages of the source.

Columns and labels:
S. gordonii = test: microbicidal activity: growth curve in medium with compound; format: cell-based, Streptococcus gordonii; conditions: 40 μM, 24 h, OD600
Protocol: (§1) To confirm that N7, N17, and V8 function by inhibiting P. gingivalis adherence to S. gordonii rather than acting as antibacterial agents, the microbicidal activity of the compounds was determined by growing the organisms in medium containing 40 μM of each compound for 24 h. […] The structures of compounds N7, N17, and V8 are shown in Fig. 3A, B, and C, respectively. In addition, overlays of compound N17 with the NITVK motif and compound V8 with the VXXLL motif of Ag I/II are shown in Fig. 3D and E, respectively.
(§2) FIG 2 S. gordonii (A) and P. gingivalis (B) were grown for 24 h in medium containing 40 μM of each compound, and growth was quantified at various time points by measuring the OD600 for each culture. One-way analysis of variance (ANOVA) was performed to determine statistical significance.
(§3) P. gingivalis ATCC 33277 was cultured in reduced Trypticase soy broth-yeast extract (TSBY) medium comprised of 30 g/liter TSB (Difco Laboratories Inc., Detroit, MI), 5% (wt/vol) yeast extract supplemented with 5 mg/liter hemin and 1 mg/liter menadione under anaerobic conditions (10% CO2, 10% H2, and 80% N2) at 37°C for 48 h. Reduced TSBY medium was prepared by incubating the medium under anaerobic conditions at 37°C for 24 h prior to bacterial inoculation. Streptococcus gordonii DL1 was grown in brain heart infusion (BHI) (Difco Laboratories Inc.) broth supplemented with 5% (wt/vol) yeast extract under anaerobic conditions as described above.

P. gingivalis = test: as above; format: cell-based, Porphyromonas gingivalis; conditions: 40 μM, 24 h, OD600
Protocol: as §1, §2, §3

HL60 cells [1] = test: LDH release (CytoTox 96); format: cell-based, human; conditions: 18 h
Protocol: (§4) The CytoTox 96 nonradioactive cytotoxicity assay (Promega Inc. Madison, WI) was used to determine extracellular lactate dehydrogenase activity (LDH) in TIGK, J774A.1, and HL60 cell cultures treated with the test compounds. […] After an 18-h incubation, the cell supernatant was collected by centrifugation at 250 × g for 4 min, and 50 μl of cell free supernatant was transferred into wells of a fresh 96-well microtiter plate. Subsequently, 50 μl of the LDH substrate was added in each well and incubated at room temperature for 30 min. Reactions were stopped by adding 50 μl of the stop solution according to the manufacturer’s protocol, and the endpoint was measured by determining optical density at 490 nm. Cells treated with culture medium containing 0.1% DMSO or with medium alone served as negative controls, and cells incubated with 15-μl lysis buffer (supplied by manufacturer) for 1 h served as a positive control for lysis. All samples were tested in triplicate.

TIGK cells [2] = test: LDH release (CytoTox 96); format: cell-based, human; conditions: 18 h
Protocol: as §4

J774A.1 cells [3] = test: LDH release (CytoTox 96); format: cell-based, mouse; conditions: 18 h
Protocol: as §4

TIGK cells [4] = test: total cellular ATP (CellTiterGlo); format: cell-based, human; conditions: 18 h, versus negative controls
Protocol: To determine the metabolic activity of cells, the total cellular ATP level was measured in cell culture samples using the CellTiterGlo reagent (Promega Inc. Madison, WI). Cells were grown as described above in the presence of the desired concentration of compounds. The spent medium was decanted, and cells were washed three times with PBS and subsequently incubated with 100 μl of the CellTiterGlo substrate. To facilitate the reaction, plates were incubated at room temperature for 2 min with shaking and for an additional 10 min without shaking. Total light production was measured using a Victor 3 multilabel plate reader (PerkinElmer).

J774A.1 cells [5] = conditions: 18 h
Protocol: (§5) The mouse macrophage cell line J774A.1 was grown in Dulbecco’s modified Eagle medium (DMEM) (Thermo Fisher Scientific, Waltham, MA) supplemented with 4.5 g/ml glucose, 10% fetal bovine serum (FBS), and 100 U/ml penicillin-streptomycin (Sigma-Aldrich, St. Louis, MO). HL60 (ATCC CCL240) cells were obtained from the American Type Culture Collection and cultured in Iscove’s modified Dulbecco’s medium (Sigma-Aldrich) supplemented with 20% fetal bovine serum (FBS) (Sigma-Aldrich).
(§6) The apoptotic activity of the compounds was determined using the phycoerythrin (PE) annexin V/dead cell apoptosis kit with Sytox green for flow cytometry (Invitrogen, Carlsbad, CA). Cells were grown in 12-well flat-bottom microtiter plates at an initial density 2 × 10^5 cells in 1.5-ml medium per well for 24 h. Following the incubation period, spent medium was replaced with fresh medium containing the desired concentration of the test compound and incubated for another 18 h. After trypsinization, cells were harvested by centrifuging at 250 × g for 4 min, and the cell pellet was suspended in 100 μl of binding buffer supplemented with 1 μl Sytox and 5 μl annexin V, followed by incubation at 37°C for 15 min. Samples were then diluted by adding 400-μl binding buffer, and flow cytometry was performed using a FACScalibur flow cytometer (Becton, Dickinson, Franklin Lakes, NJ), measuring the fluorescence emissions at 530 nm and 575 nm.

HL60 cells [6] = conditions: 18 h
Protocol: as §5, §6

Compound | growth curve versus medium alone or 0.1% DMSO (S. gordonii) | growth curve versus medium alone or 0.1% DMSO (P. gingivalis) | cellular ATP levels (TIGK cells [4]) | Early apoptosis (%) (J774A.1 cells [5]; 5 μM) | Late apoptosis/necrosis (%) (J774A.1 cells [5]; 5 μM) | Live cells (%) (J774A.1 cells [5]; 5 μM) | Early apoptosis (%) (J774A.1 cells [5]; 20 μM) | Late apoptosis/necrosis (%) (J774A.1 cells [5]; 20 μM) | Live cells (%) (J774A.1 cells [5]; 20 μM) | Late apoptosis/necrosis (%) (J774A.1 cells [5]; 40 μM) | Live cells (%) (J774A.1 cells [5]; 40 μM) | Early apoptosis (%) (HL60 cells [6]; HL60, 5 μM) | Late apoptosis/necrosis (%) (HL60 cells [6]; HL60, 5 μM) | Live cells (%) (HL60 cells [6]; HL60, 5 μM) | Early apoptosis (%) (HL60 cells [6]; HL60, 20 μM) | Late apoptosis/necrosis (%) (HL60 cells [6]; HL60, 20 μM) | Live cells (%) (HL60 cells [6]; HL60, 20 μM) | Early apoptosis (%) (HL60 cells [6]; HL60, 40 μM) | Late apoptosis/necrosis (%) (HL60 cells [6]; HL60, 40 μM) | Live cells (%) (HL60 cells [6]; HL60, 40 μM) | further results
O=C(Nc1ccccc1O)c1cccc(N2C(=O)c3ccc(C(=O)Nc4ccccc4O)cc3C2=O)c1 [N17, N-(2-hydroxyphenyl)-2-{3-[(2-hydroxyphenyl)carbamoyl]phenyl}-1,3-dioxo-2,3-dihydro-1H-isoindole-5-carboxamide] | not significantly different | not significantly different | did not significantly differ from the negative controls | 1.0% | 6.1% | 87.8% | 1.0% | 6.9% | 85.3% | 6.6% | 87.3% | 2.7% | 4.7% | 91.3% | 2.2% | 6.0% | 90.3% | 2.3% | 6.3% | 91.6% | LDH release (HL60 cells [1]; HL-60 cells, 5, 20 and 40 μM): no significant effect; LDH release (TIGK cells [2]; versus negative controls): did not significantly differ from the negative controls; LDH release (J774A.1 cells [3]; J774A.1 cells, 5, 20 and 40 μM): no significant effect; Early apoptosis (%) (J774A.1 cells [5]; 40 μM): 1.2%
Cl.N=c1n(CCN2CCCCC2)c2ccccc2n1CC(O)COc1ccc(Cl)cc1 (centres unmarked) [N7, 1-(4-chlorophenoxy)-3-{2-imino-3-[2-(piperidin-1-yl)ethyl]-2,3-dihydro-1H-1,3-benzodiazol-1-yl}propan-2-ol hydrochloride] | not significantly different | not significantly different | significantly reduced cellular ATP levels | 2.5% | 5.5% | 83.9% | 16.9% | 46.6% | 33.4% | 38.0% | 36.2% | 3.6% | 7.8% | 87.4% | 20.9% | 43.9% | 27.3% | 7.7% | 70.8% | 18.9% | LDH release (HL60 cells [1]; HL-60 cells, 20 μM and 40 μM): significant increases; LDH release (TIGK cells [2]; 40 μM): significant increase in LDH release; LDH release (J774A.1 cells [3]; J774A.1 cells, 20 μM and 40 μM): significant increases; Early apoptosis (%) (J774A.1 cells [5]; 40 μM): 24.9%
Cc1cc([C@H]2CCCN(CC(=O)NC3(C#N)CCCC3)C2)n[nH]1 [V8, N-(1-cyanocyclopentyl)-2-[3-(5-methyl-1H-pyrazol-3-yl)piperidin-1-yl] acetamide] | not significantly different | not significantly different | did not significantly differ from the negative controls | 1.1% | 8.3% | 85.1% | 0.9% | 8.0% | 83.4% | 9.1% | 84.3% | 2.9% | 5.6% | 91.8% | 3.7% | 5.0% | 91.3% | 2.4% | 6.7% | 88.4% | LDH release (HL60 cells [1]; HL-60 cells, 5, 20 and 40 μM): no significant effect; LDH release (TIGK cells [2]; versus negative controls): did not significantly differ from the negative controls; LDH release (J774A.1 cells [3]; J774A.1 cells, 5, 20 and 40 μM): no significant effect
